Assay results reported in patent publication US12729181B2, “Compounds, compositions, and methods for modulating calcium ion homeostasis” (The Regents of the University of California, priority 2020, dated 2026).

System: tre^tc318 mutant embryos
Assay: Compound rescue screen: restoration of persistent heartbeat in tremblor embryos
Assay type: in vivo, Zebrafish
Details: for responders at 15 µM / responders at 10 µM / responders at 20 µM: Danio rerio, 48 h; for responders at 15 µM: read-out: Rescue at 15 uM (%); for responders at 10 µM: read-out: Rescue at 10 uM (%); for Rescue at 10 uM (%): 10 uM from 30 hpf; for Rescue at 15 uM (%): 15 uM from 30 hpf; for responders at 20 µM: read-out: Rescue at 20 uM (%)
Experimental: Zebrafish of the mutant line tremblor (tre^tc318) were maintained and bred as described previously in the literature. C. f. Langenbacher A D, et al., PNAS, 2005, 102(49), 17699-17704.
Exemplary compounds were screened for their ability to partially or completely restore persistent heartbeat in tre^tc318 embryos. 10 tre^tc318 mutant embryos were placed in each well of a 24-well plate and raised in the presence of individual compounds at various concentrations (5, 10, 15 and 20 μM) from 30 hpf. Cardiac function was analyzed by visual inspection at 2 dpf. The hearts of tre^tc318 embryos manifest a chaotic movement resembling cardiac fibrillation with sporadic contractions. Compounds that elicited persistent coordinated cardiac contractions were validated by rescreening at least once on another 10 tre^tc318 mutant embryos.

[1] = cardiac function by visual inspection at 2 dpf, 10 embryos per well

Row | Compound | responders at 15 µM [%] | responders at 10 µM [%] | also measured
1 | CCOC(=O)C1=CCN(S(=O)(=O)c2ccc(F)cc2)C1c1ccc(Cl)cc1 (centres unmarked) [FS123] | 70 | – | –
2 | CCOC(=O)C1=CCN(S(=O)(=O)c2ccccc2Cl)C1c1ccc(F)cc1 (centres unmarked) [FS043] | – | 33 | –
3 | CCOC(=O)C1=CCN(S(=O)(=O)c2cccc(Br)c2)C1c1ccc(Br)cc1 (centres unmarked) [FS137] | 0 | – | –
4 | CCOC(=O)C1=CCN(S(=O)(=O)c2ccc(C)cc2)C1c1ccc(Cl)cc1 (centres unmarked) [FS063] | – | – | Rescue at 10 uM (%) [1]: 40%
5 | CCOC(=O)C1=CCN(S(=O)(=O)c2ccc(C)cc2)C1c1ccccc1F (centres unmarked) [FS062] | – | – | Rescue at 10 uM (%) [1]: 50%; Rescue at 15 uM (%) [1]: 90%; Rescue at 20 uM (%) (20 uM from 30 hpf, cardiac function by visual inspection at 2 dpf, 10 embryos per well): 60%
6 | CCOC(=O)C1=CCN(S(=O)(=O)c2ccc(C)cc2)C1c1ccc(Cl)c(Cl)c1 (centres unmarked) [FS065] | – | 11 | –
7 | CCOC(=O)C1=CCN(S(=O)(=O)c2cccc(Cl)c2)C1c1cccc(F)c1 (centres unmarked) [FS121] | 56 | – | –
8 | CCOC(=O)C1=CCN(S(=O)(=O)c2ccccc2Br)C1c1cccc(Br)c1 (centres unmarked) [FS031] | – | 0 | –
9 | CCOC(=O)C1=CCN(S(=O)(=O)c2ccccc2Br)C1c1cccc(F)c1 (centres unmarked) [FS032] | – | 0 | –
10 | CCOC(=O)C1=CCN(S(=O)(=O)c2ccccc2)C1c1ccc(C)cc1 (centres unmarked) [FS077] | – | – | Rescue at 10 uM (%) [1]: 30%
11 | CCOC(=O)C1=CCN(S(=O)(=O)c2ccc(C)cc2)C1c1ccc(C(=O)OCC)cc1 (centres unmarked) [FS061] | 56 | 40 | responders at 20 µM: 40%
12 | CCOC(=O)C1=CCN(S(C)(=O)=O)C1c1ccc(Cl)cc1 (centres unmarked) [FS139] | – | – | Rescue at 15 uM (%) [1]: 0%
13 | CCOC(=O)C1=CCN(S(=O)(=O)c2ccc(Cl)cc2)C1c1cccc(F)c1 (centres unmarked) [FS090] | – | 40 | –
14 | CCOC(=O)C1=CCN(S(=O)(=O)c2ccc(Br)cc2)C1c1ccc(Cl)cc1 (centres unmarked) [FS099] | 33 | 0 | –
15 | CCOC(=O)C1=CCN(S(=O)(=O)c2ccc(C)cc2)C1c1ccc2c(c1)OCO2 (centres unmarked) [FS059] | – | 20 | –
16 | CCOC(=O)C1=CCN(S(=O)(=O)c2cccc(Cl)c2)C1c1cccc(C)c1 (centres unmarked) [FS122] | 33 | – | –

Row | Compound | responders at 15 µM [%] | responders at 10 µM [%] | also measured
17 | CCOC(=O)C1=CCN(S(=O)(=O)c2ccc(Br)cc2)C1c1ccc(Cl)c(Cl)c1 (centres unmarked) [FS092] | 11 | 0 | responders at 20 µM: 11%
18 | CCOC(=O)C1=CCN(S(=O)(=O)c2ccc(C)cc2)C1c1cccs1 (centres unmarked) [FS147] | 60 | – | –
19 | CCOC(=O)C1=CCN(S(=O)(=O)c2ccccc2Cl)C1c1ccccc1 (centres unmarked) [FS054] | – | 0 | –
20 | CCOC(=O)C1=CCN(S(=O)(=O)c2ccccc2Br)C1c1ccc(Cl)c(Cl)c1 (centres unmarked) [FS029] | 10 | 70 | responders at 20 µM: 10%
21 | CCOC(=O)C1=CCN(S(=O)(=O)c2ccc(Cl)cc2)C1c1cccc(Cl)c1 (centres unmarked) [FS088] | – | 0 | –
22 | CCOC(=O)C1=CCN(S(=O)(=O)c2cccc(F)c2)C1c1ccc(Cl)cc1 (centres unmarked) [FS133] | 78 | – | –
23 | CCOC(=O)C1=CCN(S(=O)(=O)c2ccc(C)cc2)C1c1ccc(C(C)C)cc1 (centres unmarked) [FS070] | – | – | Rescue at 10 uM (%) [1]: 0%
24 | CCOC(=O)C1=CCN(S(=O)(=O)c2ccc(F)cc2)C1c1cccc(Br)c1 (centres unmarked) [FS115] | 30 | – | –
25 | CCOC(=O)C1=CCN(S(=O)(=O)c2ccc(Cl)cc2)C1c1cccc(Br)c1 (centres unmarked) [FS089] | – | 0 | –
26 | CCOC(=O)C1=CCN(S(=O)(=O)c2ccccc2C)C1c1ccc(C)cc1 (centres unmarked) [FS018] | – | 0 | –
27 | CCOC(=O)C1=CCN(S(=O)(=O)c2ccccc2Br)C1c1cccc(C)c1 (centres unmarked) [FS033] | – | 0 | –
28 | CCOC(=O)C1=CCN(S(=O)(=O)c2ccc([N+](=O)[O-])cc2)C1c1ccc(C)cc1 (centres unmarked) [FS141] | 0 | – | –
29 | CCOC(=O)C1=CCN(S(=O)(=O)c2cccc(Cl)c2)C1c1ccccc1 (centres unmarked) [FS132] | 88 | – | –
30 | CCOC(=O)C1=CCN(S(=O)(=O)c2ccc(C)cc2)C1c1ccc(Br)cc1 (centres unmarked) [FS066] | – | – | Rescue at 10 uM (%) [1]: 11%
31 | CCOC(=O)C1=CCN(S(=O)(=O)c2ccccc2C)C1c1ccc(Br)cc1 (centres unmarked) [FS039] | – | 33 | –
32 | CCOC(=O)C1=CCN(S(=O)(=O)c2ccc(Br)cc2)C1c1ccc(C)cc1 (centres unmarked) [FS102] | – | 0 | –
